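Compound exposure: 48 hours, 5 concentrations, 96-well plates. At the GI50, growth is halved.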 Activity calls are given as the source filed them. Rule as the data show it: active = GI50 up to about 1.1 µM and inactive = higher.
Experiments:
Assay in all cases: DTP human tumour cell line panel, 48 h
SK-MEL-28 = tested on: SK-MEL-28
EKVX = tested on: EKVX
SR = tested on: SR
SN12C = tested on: SN12C
KM12 = tested on: KM12
HT-29 = tested on: HT-29
SK-MEL-5 = tested on: SK-MEL-5
MDA-MB-231 = tested on: MDA-MB-231
MOLT-4 = tested on: MOLT-4
A549 = tested on: A549
BT-549 = tested on: BT-549
NCI-H460 = tested on: NCI-H460
OVCAR-8 = tested on: OVCAR-8
CAKI-1 = tested on: CAKI-1
SF-268 = tested on: SF-268
A498 = tested on: A498
NCI-H522 = tested on: NCI-H522
HOP-92 = tested on: HOP-92
RPMI-8226 = tested on: RPMI-8226
OVCAR-4 = tested on: OVCAR-4

Row | Compound | GI50 (SK-MEL-28) | GI50 (EKVX) | GI50 (SR) | GI50 (SN12C) | GI50 (KM12) | GI50 (HT-29) | GI50 (SK-MEL-5) | GI50 (MDA-MB-231) | GI50 (MOLT-4) | GI50 (A549) | GI50 (BT-549) | GI50 (NCI-H460) | GI50 (OVCAR-8) | GI50 (CAKI-1) | GI50 (SF-268) | GI50 (A498) | GI50 (NCI-H522) | GI50 (HOP-92) | GI50 (RPMI-8226) | GI50 (OVCAR-4)
1 | CC[C@]1(Cc2ccc(OC)c(OC)c2)[C@@H]2C[C@@H](C(=O)OC)ON2O[C@H](OC2CCCC2(c2ccccc2)c2ccccc2)[C@@H]1OC(C)=O (some centres not stated) | > 100 µM (inactive) | > 100 µM (inactive) | 66.7 µM (inactive) | > 100 µM (inactive) | > 100 µM (inactive) | > 100 µM (inactive) | > 100 µM (inactive) | > 100 µM (inactive) | > 100 µM (inactive) | > 100 µM (inactive) | > 100 µM (inactive) | > 100 µM (inactive) | > 100 µM (inactive) | > 100 µM (inactive) | > 100 µM (inactive) | – | – | – | – | –
2 | Oc1cc(-c2cccc(OC(F)(F)F)c2)nc2ccc(N3CCCC3)cc12 | – | 0.031 µM (active) | < 0.0001 µM (active) | 0.00041 µM (active) | 0.000129 µM (active) | 0.000217 µM (active) | 0.000209 µM (active) | 0.00156 µM (active) | 0.000335 µM (active) | 0.0103 µM (active) | – | 0.0025 µM (active) | 0.000426 µM (active) | 0.01 µM (active) | 0.000306 µM (active) | 0.000322 µM (active) | 0.000376 µM (active) | 0.0731 µM (active) | 0.000261 µM (active) | –
3 | CC1CNC(c2ccc(CN3CCC(C4CCN(Cc5ccc(C6=NC(C)CN6)cc5)CC4)CC3)cc2)=N1 (configuration not stated) | 32.6 µM (inactive) | 21.7 µM (inactive) | – | 20.1 µM (inactive) | 15.7 µM (inactive) | 18.5 µM (inactive) | 36.2 µM (inactive) | 17.7 µM (inactive) | 19.7 µM (inactive) | 20.6 µM (inactive) | > 100 µM (inactive) | 18.5 µM (inactive) | 29.6 µM (inactive) | 38.8 µM (inactive) | 22.4 µM (inactive) | 29.2 µM (inactive) | 15 µM (inactive) | 75.7 µM (inactive) | 19.5 µM (inactive) | 16.8 µM (inactive)
4 | O=C(O)c1cccc(S(=O)(=O)NN2C(=O)CSC2c2ccccc2Cl)c1 (configuration not stated) | > 100 µM (inactive) | > 100 µM (inactive) | 4.09 µM (inactive) | > 100 µM (inactive) | > 100 µM (inactive) | > 100 µM (inactive) | > 100 µM (inactive) | > 100 µM (inactive) | > 100 µM (inactive) | > 100 µM (inactive) | > 100 µM (inactive) | > 100 µM (inactive) | > 100 µM (inactive) | > 100 µM (inactive) | > 100 µM (inactive) | – | > 100 µM (inactive) | > 100 µM (inactive) | 81.3 µM (inactive) | –
5 | CN(c1ccccc1Cl)S(=O)(=O)c1ccc([N+](=O)[O-])cc1 | > 100 µM (inactive) | > 100 µM (inactive) | > 100 µM (inactive) | > 100 µM (inactive) | > 100 µM (inactive) | > 100 µM (inactive) | > 100 µM (inactive) | > 100 µM (inactive) | > 100 µM (inactive) | > 100 µM (inactive) | > 100 µM (inactive) | > 100 µM (inactive) | > 100 µM (inactive) | > 100 µM (inactive) | > 100 µM (inactive) | – | > 100 µM (inactive) | – | > 100 µM (inactive) | > 100 µM (inactive)
6 | CC(C)C(=O)CC(Sc1ccc(N)cc1)c1ccccc1 (configuration not stated) | 30.8 µM (inactive) | – | – | 28.1 µM (inactive) | 22.5 µM (inactive) | 27.5 µM (inactive) | 20.4 µM (inactive) | 22.3 µM (inactive) | 25.1 µM (inactive) | 28.1 µM (inactive) | 33.7 µM (inactive) | 23.2 µM (inactive) | 25.6 µM (inactive) | 34.3 µM (inactive) | 28.5 µM (inactive) | 36.2 µM (inactive) | 15.8 µM (inactive) | – | 17.4 µM (inactive) | –
7 | O=C1CCCc2cc3c(cc21)CCC3C(=O)O (configuration not stated) | > 100 µM (inactive) | > 100 µM (inactive) | > 100 µM (inactive) | > 100 µM (inactive) | > 100 µM (inactive) | > 100 µM (inactive) | > 100 µM (inactive) | > 100 µM (inactive) | > 100 µM (inactive) | > 100 µM (inactive) | > 100 µM (inactive) | > 100 µM (inactive) | > 100 µM (inactive) | > 100 µM (inactive) | > 100 µM (inactive) | – | > 100 µM (inactive) | – | > 100 µM (inactive) | > 100 µM (inactive)
8 | C[C@H](C1CC2(C)OC2(C)C(=O)O1)[C@H]1CC[C@H]2[C@@H]3[C@@H]4O[C@@H]4[C@@]4(O)CC=CC(=O)[C@]4(C)[C@H]3CC[C@]12C (some centres not stated) | > 50 µM (inactive) | > 50 µM (inactive) | – | > 50 µM (inactive) | > 50 µM (inactive) | > 50 µM (inactive) | > 50 µM (inactive) | > 50 µM (inactive) | > 50 µM (inactive) | > 50 µM (inactive) | > 50 µM (inactive) | > 50 µM (inactive) | > 50 µM (inactive) | > 50 µM (inactive) | > 50 µM (inactive) | > 50 µM (inactive) | 36.6 µM (inactive) | > 50 µM (inactive) | > 50 µM (inactive) | > 50 µM (inactive)
9 | Cc1ccc2oc3c(c(Br)c(Br)n3C)c(=O)c2c1 | > 100 µM (inactive) | 10.4 µM (inactive) | – | 18.3 µM (inactive) | > 100 µM (inactive) | 91.8 µM (inactive) | 27.7 µM (inactive) | 20.3 µM (inactive) | > 100 µM (inactive) | 20.5 µM (inactive) | > 100 µM (inactive) | – | 17.4 µM (inactive) | 28.4 µM (inactive) | 29.4 µM (inactive) | 20.9 µM (inactive) | 46.2 µM (inactive) | 18.1 µM (inactive) | > 100 µM (inactive) | 51.5 µM (inactive)
10 | COc1cc2oc(-c3ccc(O)cc3)cc(=O)c2c(OC)c1O | > 100 µM (inactive) | > 100 µM (inactive) | – | 68.7 µM (inactive) | – | > 100 µM (inactive) | 49.4 µM (inactive) | 46.9 µM (inactive) | > 100 µM (inactive) | 89.9 µM (inactive) | 67.9 µM (inactive) | 45.7 µM (inactive) | 49.7 µM (inactive) | > 100 µM (inactive) | 37.8 µM (inactive) | – | 29.8 µM (inactive) | 27.9 µM (inactive) | 89.9 µM (inactive) | > 100 µM (inactive)
11 | CC12CCC(C(=O)n3c1nc1ccccc13)C(C)(C)O2 (configuration not stated) | > 100 µM (inactive) | > 100 µM (inactive) | > 100 µM (inactive) | > 100 µM (inactive) | > 100 µM (inactive) | > 100 µM (inactive) | 49 µM (inactive) | > 100 µM (inactive) | > 100 µM (inactive) | > 100 µM (inactive) | > 100 µM (inactive) | – | > 100 µM (inactive) | > 100 µM (inactive) | > 100 µM (inactive) | – | 47.6 µM (inactive) | > 100 µM (inactive) | > 100 µM (inactive) | > 100 µM (inactive)
12 | Cc1ccsc1C(=S)Nc1ccc(Cl)c(C(=O)OC(C(C)C)C(C)C)c1 | 27.1 µM (inactive) | 23.2 µM (inactive) | – | 24.8 µM (inactive) | 20 µM (inactive) | 17.4 µM (inactive) | 15.4 µM (inactive) | 17.2 µM (inactive) | 5.51 µM (inactive) | 12.2 µM (inactive) | 3.38 µM (inactive) | 23.7 µM (inactive) | 21.3 µM (inactive) | 19.5 µM (inactive) | 40.8 µM (inactive) | 27.2 µM (inactive) | 11.4 µM (inactive) | 16.3 µM (inactive) | 10.6 µM (inactive) | 29.1 µM (inactive)
13 | COc1ccc(CCNC(=S)NC=C2C(=O)c3ccccc3C2=O)cc1OC | > 100 µM (inactive) | > 100 µM (inactive) | 82 µM (inactive) | > 100 µM (inactive) | > 100 µM (inactive) | > 100 µM (inactive) | > 100 µM (inactive) | 68.1 µM (inactive) | 83.9 µM (inactive) | > 100 µM (inactive) | – | 10 µM (inactive) | > 100 µM (inactive) | > 100 µM (inactive) | > 100 µM (inactive) | > 100 µM (inactive) | > 100 µM (inactive) | 0.741 µM (active) | 17.9 µM (inactive) | > 100 µM (inactive)
14 | CC(=O)NC1C(OCC(=O)NC(C)C(=O)NC(CCC(=O)NCCCCCNc2ccc([N+](=O)[O-])c3[nH]c4ccccc4c(=O)c23)C(N)=O)C(O)C(CO)OC1(C)OCc1ccccc1 (configuration not stated) | – | > 50 µM (inactive) | – | 19.6 µM (inactive) | > 50 µM (inactive) | 38.6 µM (inactive) | > 50 µM (inactive) | 12 µM (inactive) | 13.3 µM (inactive) | > 50 µM (inactive) | > 50 µM (inactive) | 18.4 µM (inactive) | > 50 µM (inactive) | > 50 µM (inactive) | 14.5 µM (inactive) | > 50 µM (inactive) | > 50 µM (inactive) | – | 0.005 µM (active) | > 50 µM (inactive)
15 | Cc1ccc(S(=O)(=O)Nn2c(O)c(C#N)c(-c3ccc(N(C)C)cc3)c(C#N)c2=O)cc1 | > 50 µM (inactive) | > 50 µM (inactive) | – | > 50 µM (inactive) | > 50 µM (inactive) | > 50 µM (inactive) | 26.2 µM (inactive) | > 50 µM (inactive) | > 50 µM (inactive) | > 50 µM (inactive) | > 50 µM (inactive) | > 50 µM (inactive) | > 50 µM (inactive) | > 50 µM (inactive) | > 50 µM (inactive) | > 50 µM (inactive) | > 50 µM (inactive) | > 50 µM (inactive) | 9.75 µM (inactive) | > 50 µM (inactive)
